Several values for one entry are separate records, joined by “and”; a condition that tells them apart may be missing. Identical values can stand only once.
Tested on: Salmonella typhimurium TA100
Assay: Bacterial reverse mutation test (Ames), strain TA100
Format: cell-based
Conditions: for Revertant Colonies (With S9), plates A, B, C / Revertant Colonies (Without S9), plates A, B, C: individual plates
Description: The reverse mutation test was performed to determine the potential of BondLynx and/or its metabolites to induce reverse mutations at the histidine locus of Salmonella typhimurium.[26],[27] The test employs strains of Salmonella typhimurium carrying mutations in the genes involved in histidine production, such that they are only able to grow in histidine supplemented culture media. Upon exposure to mutagenic materials, these mutations may be reversed, thereby restoring the ability to grow in histidine-free media. When grown in the presence of the test compound on media with a small amount of histidine, tester strains grow briefly to allow the opportunity for mutation, followed by proliferation of revertant colonies upon depletion of the provided histidine. Thus, the number of revertant colonies following incubation is indicative of the ability of the test compound to induce mutations.
Tests were performed on two strains of the bacteria (TA98 and TA100) in the absence and presence of an exogenous mammalian metabolic activation system (5% v/v S9). Positive controls and BondLynx were suspended in dimethyl sulfoxide (DMSO) for testing, and DMSO served as the vehicle control. Positive controls consisted of 2-nitrofluorene (10 μg/plate) for the TA98 strain without S9, methyl mesylate (650 μg/plate) for the TA100 strain without S9, and 2-aminoanthracene for both strains with S9 (1 μg/plate for TA98 and 5 μg/plate for TA100). Eight concentrations of BondLynx (1.7, 5.4, 17, 52, 164, 512, 1600 and 5000 μg/plate) were tested in triplicate. The vehicle control was tested in triplicate and the positive controls were tested singular.
Test solutions were prepared by pre-incubating .1 mL fresh bacterial culture (10^9 cells/mL), .1 mL of a BondLynx dilution or control solution, and .5 mL of S9 mix or .1 M phosphate buffer for 30 min before adding to 3 mL of molten (45 ± 2°C) top agar. After mixing in a vortex, agar solutions were poured onto selective agar plates. Upon solidification, the prepared plates were inverted and incubated at 37.0 ± 1.0°C for 48 ± 4 h. Following incubation, revertant colonies were counted with a Sorcerer Colony Counter. The condition of the bacterial background lawn was evaluated macroscopically and/or microscopically using a dissecting microscope when considered necessary.

[1] = TA100, without S9, 1.7 μg/plate
[2] = TA100, without S9, 5.4 μg/plate
[3] = TA100, without S9, 164 μg/plate
[4] = TA100, without S9, 512 μg/plate
[5] = TA100, without S9, 1600 μg/plate
[6] = TA100, without S9, 5000 μg/plate

FC(F)(F)C1(c2ccc(C(c3ccc(C4(C(F)(F)F)N=N4)cc3)(C(F)(F)F)C(F)(F)F)cc2)N=N1 [BondLynx, 2,2-bis-[4-[3-(trifluoromethyl)-3H-diazirin-3-yl]phenyl]hexafluoropropane]
Mutagenicity conclusion (TA100, absence and presence of S9, 1.7 to 5000 μg/plate): non-mutagenic | Total number of revertants relative to concurrent vehicle control (TA100, vs DMSO vehicle control): less than two times | Revertant Colonies (With S9), Mean ± SD (TA100, with S9, 1.7 μg/plate): 95 ± 3 | Revertant Colonies (With S9), plates A, B, C (TA100, with S9, 1.7 μg/plate): 93 and 94 and 98 | Revertant Colonies (With S9), Mean ± SD (TA100, with S9, 5.4 μg/plate): 92 ± 17 | Revertant Colonies (With S9), plates A, B, C (TA100, with S9, 5.4 μg/plate): 98 and 73 and 105 | Revertant Colonies (With S9), Mean ± SD (TA100, with S9, 17 μg/plate): 89 ± 15 | Revertant Colonies (With S9), plates A, B, C (TA100, with S9, 17 μg/plate): 72 and 98 (2×) | Revertant Colonies (With S9), Mean ± SD (TA100, with S9, 52 μg/plate): 100 ± 16 | Revertant Colonies (With S9), plates A, B, C (TA100, with S9, 52 μg/plate): 118 and 93 and 88 | Revertant Colonies (With S9), Mean ± SD (TA100, with S9, 164 μg/plate): 96 ± 16 | Revertant Colonies (With S9), plates A, B, C (TA100, with S9, 164 μg/plate): 83 and 113 and 91 | Revertant Colonies (With S9), Mean ± SD (TA100, with S9, 512 μg/plate): 99 ± 16 | Revertant Colonies (With S9), plates A, B, C (TA100, with S9, 512 μg/plate): 98 and 84 and 116 | Revertant Colonies (With S9), Mean ± SD (TA100, with S9, 1600 μg/plate): 88 ± 8 | Revertant Colonies (With S9), plates A, B, C (TA100, with S9, 1600 μg/plate): 84 and 82 and 97 | Revertant Colonies (With S9), Mean ± SD (TA100, with S9, 5000 μg/plate): 96 ± 10 | Revertant Colonies (With S9), plates A, B, C (TA100, with S9, 5000 μg/plate): 107 and 94 and 88 | Revertant Colonies (Without S9), Mean ± SD [1]: 88 ± 3 | Revertant Colonies (Without S9), plates A, B, C [1]: 91 and 86 (2×) | Revertant Colonies (Without S9), Mean ± SD [2]: 112 ± 15 | Revertant Colonies (Without S9), plates A, B, C [2]: 127 and 110 and 98 | Revertant Colonies (Without S9), Mean ± SD (TA100, without S9, 17 μg/plate): 107 ± 7 | Revertant Colonies (Without S9), plates A, B, C (TA100, without S9, 17 μg/plate): 114 and 101 and 105 | Revertant Colonies (Without S9), Mean ± SD (TA100, without S9, 52 μg/plate): 102 ± 22 | Revertant Colonies (Without S9), plates A, B, C (TA100, without S9, 52 μg/plate): 105 and 122 and 78 | Revertant Colonies (Without S9), Mean ± SD [3]: 100 ± 4 | Revertant Colonies (Without S9), plates A, B, C [3]: 95 and 103 and 102 | Revertant Colonies (Without S9), Mean ± SD [4]: 91 ± 17 | Revertant Colonies (Without S9), plates A, B, C [4]: 84 and 110 and 79 | Revertant Colonies (Without S9), Mean ± SD [5]: 91 ± 12 | Revertant Colonies (Without S9), plates A, B, C [5]: 82 and 86 and 105 | Revertant Colonies (Without S9), Mean ± SD [6]: 102 ± 13 | Revertant Colonies (Without S9), plates A, B, C [6]: 91 and 116 and 99 | Cytotoxicity (condition of microcolony lawn) (absence of S9, higher concentrations): slight thinning of the microcolony lawn | Cytotoxicity (condition of microcolony lawn) (presence of S9, any tested dose level): toxicity was not observed
